Read-outs that look alike come from different tables or passages of the source.
How the values were obtained:
HUVECs = test: High-content imaging cytotoxicity in HUVECs, 24 h; assay type: cell-based, human; settings: Homo sapiens, HUVEC, 24 h, HUVECs; for viability at 0.01 µM / activity at 0.01 µM / viability at 0.1 µM / activity at 0.1 µM / viability at 1 µM / activity at 1 µM / viability at 10 µM / activity at 10 µM / viability at 100 µM / activity at 100 µM: 0.00 µM = 100.00; for viability at 0.1 µM / activity at 0.1 µM: 0.10 µM; for minimal effective concentration: top concentration 100.00 µM
Procedure, shortened: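 Confluent HUVEC monolayers, passages 1–5, received test chemicals for 24 h. Cytotoxicity was scored from triple-stain high-content images, with PODs defined by a one-SD deviation from 0.5% DMSO vehicle controls.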

[1] = tested on: iCell cardiomyocytes (human iPSC-derived cardiomyocytes); test: High-content imaging of cytotoxicity and mitochondrial integrity in iPSC-CMs; assay type: cell-based; settings: Homo sapiens; for viability at 0.01 µM / activity at 0.01 µM / viability at 0.1 µM / activity at 0.1 µM / viability at 1 µM / activity at 1 µM / viability at 10 µM / activity at 10 µM / viability at 100 µM / activity at 100 µM: Cardiomyocyte, 0.00 µM = 100.00; for viability at 0.1 µM / activity at 0.1 µM: 0.10 µM; for minimal effective concentration: iPSC-CM
Procedure, shortened: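 Cardiomyocytes grown on gelatinized 384-well plates received fresh medium on the experiment day and were then exposed to chemicals at 0.01–100μM. Nuclei and mitochondria were labeled with Hoechst 33342 and MitoTracker™ Orange, then fixed, and imaged on an ImageXpress® Micro Confocal system. Four-parameter logistic concentration–response fits in R, with a one-standard-deviation vehicle cutoff, gave point-of-departure values.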

[2] = 24 hr, read-out: huvec.cyto.24hr
[3] = 24 hr, read-out: huvec.mito.24hr
[4] = 24 hr, read-out: huvec.mitoint.24hr
[5] = 24 hr, read-out: huvec.nma.24hr
[6] = 24 hrs, read-out: huvec.tc.24hrs

Molecule `Oc1ccc(-c2ccc(Cl)cc2)cc1` [4'-OH PCB3] has a viability at 0.01 µM (HUVECs; [2]) of 86.4%, an activity at 0.01 µM (HUVECs; [3]) of 85.6% and an activity at 0.01 µM (HUVECs; [4]) of 96.8%. It also gave an activity at 0.01 µM (HUVECs; [5]) of 96.6%, a viability at 0.1 µM (HUVECs; [2]) of 96.6% and an activity at 0.1 µM (HUVECs; [3]) of 95.3%. For the same molecule, the activity at 0.1 µM (HUVECs; [4]) was 115%, the activity at 0.1 µM (HUVECs; [5]) was 97.7% and the viability at 1 µM (HUVECs; [2]) was 97.8%. It also gave an activity at 1 µM (HUVECs; [3]) of 97.4%, an activity at 1 µM (HUVECs; [4]) of 107% and an activity at 1 µM (HUVECs; [5]) of 102%. It also gave a viability at 10 µM (HUVECs; [2]) of 92.7%, an activity at 10 µM (HUVECs; [3]) of 86.8% and an activity at 10 µM (HUVECs; [4]) of 95.9%. For the same molecule, the activity at 10 µM (HUVECs; [5]) was 92.6%, the viability at 100 µM (HUVECs; [2]) was 73.5% and the activity at 100 µM (HUVECs; [3]) was 36.5%. It also gave an activity at 100 µM (HUVECs; [4]) of 11.1%, an activity at 100 µM (HUVECs; [5]) of 80.7% and a minimal effective concentration (HUVECs; 24 hr, read-out: huvec.cyto.24hr POD) of 7.01 µM. The minimal effective concentration (HUVECs; 24 hr, read-out: huvec.mito.24hr POD) was 3.9 µM, the minimal effective concentration (HUVECs; 24 hr, read-out: huvec.mitoint.24hr POD) was 11.2 µM and the minimal effective concentration (HUVECs; 24 hr, read-out: huvec.nma.24hr POD) was 6.91 µM. For the same molecule, the viability at 0.01 µM (HUVECs; [6]) was 86.4%, the viability at 0.1 µM (HUVECs; [6]) was 96.6% and the viability at 1 µM (HUVECs; [6]) was 97.8%. For the same molecule, the viability at 10 µM (HUVECs; [6]) was 93.3%, the viability at 100 µM (HUVECs; [6]) was 77.9% and the minimal effective concentration (HUVECs; 24 hrs, read-out: huvec.tc.24hrs POD) was 7.01 µM. The viability at 0.01 µM ([1]; 1.5 h, read-out: cm.cam.90min) was 98.1%, the activity at 0.01 µM ([1]; 1.5 h, read-out: cm.mii.90min) was 97% and the activity at 0.01 µM ([1]; 1.5 h, read-out: cm.mito.90min) was 98.1%. It also gave a viability at 0.01 µM ([1]; 1.5 h, read-out: cm.tc.90min) of 98.1%, a viability at 0.1 µM ([1]; 1.5 h, read-out: cm.cam.90min) of 101% and an activity at 0.1 µM ([1]; 1.5 h, read-out: cm.mii.90min) of 100%. It also gave an activity at 0.1 µM ([1]; 1.5 h, read-out: cm.mito.90min) of 101%, a viability at 0.1 µM ([1]; 1.5 h, read-out: cm.tc.90min) of 102% and a viability at 1 µM ([1]; 1.5 h, read-out: cm.cam.90min) of 100%. For the same molecule, the activity at 1 µM ([1]; 1.5 h, read-out: cm.mii.90min) was 98.2%, the activity at 1 µM ([1]; 1.5 h, read-out: cm.mito.90min) was 100% and the viability at 1 µM ([1]; 1.5 h, read-out: cm.tc.90min) was 100%. For the same molecule, the viability at 10 µM ([1]; 1.5 h, read-out: cm.cam.90min) was 98%, the activity at 10 µM ([1]; 1.5 h, read-out: cm.mii.90min) was 98.5% and the activity at 10 µM ([1]; 1.5 h, read-out: cm.mito.90min) was 97.9%. The viability at 10 µM ([1]; 1.5 h, read-out: cm.tc.90min) was 97.9%, the viability at 100 µM ([1]; 1.5 h, read-out: cm.cam.90min) was 0% and the activity at 100 µM ([1]; 1.5 h, read-out: cm.mii.90min) was 0%. The activity at 100 µM ([1]; 1.5 h, read-out: cm.mito.90min) was 0%, the viability at 100 µM ([1]; 1.5 h, read-out: cm.tc.90min) was 0.0231% and the viability at 0.01 µM ([1]; 24 h, read-out: cm.cam.24hrs) was 98.2%. The activity at 0.01 µM ([1]; 24 h, read-out: cm.mii.24hrs) was 96.5%, the activity at 0.01 µM ([1]; 24 h, read-out: cm.mito.24hrs) was 95.9% and the viability at 0.01 µM ([1]; 24 h, read-out: cm.tc.24hrs) was 98.1%. The viability at 0.1 µM ([1]; 24 h, read-out: cm.cam.24hrs) was 99.2%, the activity at 0.1 µM ([1]; 24 h, read-out: cm.mii.24hrs) was 99.8% and the activity at 0.1 µM ([1]; 24 h, read-out: cm.mito.24hrs) was 97.4%. It also gave a viability at 0.1 µM ([1]; 24 h, read-out: cm.tc.24hrs) of 99%, a viability at 1 µM ([1]; 24 h, read-out: cm.cam.24hrs) of 104% and an activity at 1 µM ([1]; 24 h, read-out: cm.mii.24hrs) of 106%. The activity at 1 µM ([1]; 24 h, read-out: cm.mito.24hrs) was 103%, the viability at 1 µM ([1]; 24 h, read-out: cm.tc.24hrs) was 105% and the viability at 10 µM ([1]; 24 h, read-out: cm.cam.24hrs) was 102%. For the same molecule, the activity at 10 µM ([1]; 24 h, read-out: cm.mii.24hrs) was 93.5%, the activity at 10 µM ([1]; 24 h, read-out: cm.mito.24hrs) was 103% and the viability at 10 µM ([1]; 24 h, read-out: cm.tc.24hrs) was 102%. For the same molecule, the viability at 100 µM ([1]; 24 h, read-out: cm.cam.24hrs) was 0.07%, the activity at 100 µM ([1]; 24 h, read-out: cm.mii.24hrs) was 9.32% and the activity at 100 µM ([1]; 24 h, read-out: cm.mito.24hrs) was 0.05%. For the same molecule, the viability at 100 µM ([1]; 24 h, read-out: cm.tc.24hrs) was 0.07%, the minimal effective concentration ([1]; 1.5 h, read-out: cm.cam.90min POD) was 12.4 µM and the minimal effective concentration ([1]; 1.5 h, read-out: cm.mii.90min POD) was 16 µM. It also gave a minimal effective concentration ([1]; 1.5 h, read-out: cm.mito.90min POD) of 11.5 µM, a minimal effective concentration ([1]; 1.5 h, read-out: cm.tc.90min POD) of 11.3 µM and a minimal effective concentration ([1]; 24 h, read-out: cm.cam.24hrs POD) of 32.3 µM. For the same molecule, the minimal effective concentration ([1]; 24 h, read-out: cm.mii.24hrs POD) was 15.4 µM, the minimal effective concentration ([1]; 24 h, read-out: cm.mito.24hrs POD) was 37.2 µM and the minimal effective concentration ([1]; 24 h, read-out: cm.tc.24hrs POD) was 38.4 µM.

From article PMC7377239, “Cardiovascular Effects of Polychlorinated Biphenyls and Their Major Metabolites” (Environmental Health Perspectives, 2020)
